Measurements as given in article PMC11940194, “Synthesis, Antiproliferative Activity, and ADME Profiling of Novel Racemic and Optically Pure Aryl-Substituted Purines and Purine Bioisosteres” (Biomolecules, 2025).

Tests used:
[1] = tested on: breast adenocarcinoma (MCF7) cells; assay: Antiproliferative MTT assay, MCF-7; assay type: cell-based, human; conditions: for IC50: Homo sapiens, MCF7, 72 h incubation, MTT, mean ± SD; for SI (MCF-7): SI = [IC50 HFF]/[IC50 MCF-7]
Method: (§1) The human ATCC tumor cell lines breast adenocarcinoma (MCF7), colorectal carcinoma (HT-29), pancreatic ductal adenocarcinoma (CFPAC-1), hepatocellular carcinoma (HepG2), and normal skin fibroblasts (HFF) derived from ATCC (American Type Culture Collection) were cultured in Dulbecco’s Modified Eagle Medium (DMEM) or Minimum Essential Medium (MEM) supplemented with 10% fetal bovine serum (FBS), 2 mM L-glutamine, 100 U/mL penicillin, and 100 µg/mL streptomycin (Lonza, Basel, Switzerland) in a humidified atmosphere with 5% CO2 at 37 °C. For the experiment, carcinoma cell lines and normal human cell lines were seeded in 96-well microtiter plates at a density of 3000 cells per well and 5000 cells per well, respectively, depending on the doubling time of the specific cell line. The test substances were then added at fivefold, tenfold dilutions (0.01 to 100 µM), freshly prepared in the growth medium on the day of testing, and incubated for a further 72 h. After 72 h of incubation, the growth rate of the cells was determined using the MTT assay according to the manufacturer’s guidelines. […] The IC50 values were calculated from the dose–response curves using linear regression analysis. The experiment was performed in tetraplicates in two individual experiments.
(§2) Newly synthesized compounds were evaluated for their cytotoxic activity in vitro against four human cancer cell lines, including human breast adenocarcinoma (MCF-7), ductal pancreatic adenocarcinoma (CFPAC-1), colorectal carcinoma (HT-29), and hepatocellular carcinoma (HepG2), as well as on non-cancerous skin fibroblasts (HFF-1), to check for non-specific toxicity. Furthermore, 5-Fluorouracil (5-FU) was used as a reference drug. The results are expressed as 50% inhibitory concentration (IC50) values and are listed in Table 2, Table 3, Table 4 and Table 5.

[2] = tested on: pancreatic ductal adenocarcinoma (CFPAC-1) cells; assay: Antiproliferative MTT assay, CFPAC-1; assay type: cell-based, human; conditions: for IC50: Homo sapiens, CFPAC-1, 72 h, 72 h incubation, MTT, mean ± SD; for SI (CFPAC-1): SI = [IC50 HFF]/[IC50 CFPAC-1]
Method: as §1, §2

[3] = tested on: colorectal carcinoma (HT-29) cells; assay: Antiproliferative MTT assay, HT-29; assay type: cell-based, human; conditions: for IC50: Homo sapiens, HT-29, 72 h, 72 h incubation, MTT, mean ± SD; for SI (HT-29): SI = [IC50 HFF]/[IC50 HT-29]
Method: as §1, §2

[4] = tested on: hepatocellular carcinoma (HepG2) cells; assay: Antiproliferative MTT assay, HepG2; assay type: cell-based, human; conditions: for IC50: Homo sapiens, HepG2, 72 h, 72 h incubation, MTT, mean ± SD; for SI (HepG2): SI = [IC50 HFF]/[IC50 HepG2]
Method: as §1, §2

[5] = tested on: normal skin fibroblasts (HFF-1); assay: Cytotoxicity MTT assay, normal skin fibroblasts; assay type: cell-based, human; conditions: Homo sapiens, HFF-1, 72 h, 72 h incubation, mean ± SD
Method: as §1, §2

[6] = tested on: P-glycoprotein (human MDR1); assay: MDCKII-MDR1 permeability assay; assay type: in vitro ADME, canine cells with over-expressed human MDR1 gene; conditions: dog, MDCK-MDR1
Method: MDCKII-hMDR1 cells were obtained from Solvo Biotechnology, Hungary. DMEM, fetal bovine serum, Glutamax-100, Antibiotic/Antimycotic, DMSO, Dulbecco’s phosphate-buffered saline, and MEM Non-essential amino acids were purchased from Sigma (St. Louis, MO, USA). Bi-directional permeability and P-glycoprotein substrate assessments were carried out in Madin-Darby canine epithelial cells with the over-expressed human MDR1 gene (MDCKII-MDR1), coding for P-glycoprotein. Experimental procedures, as well as cell culture conditions, were the same as previously described. Briefly, compounds (10 µM, 1% DMSO v/v) in duplicate were incubated at 37 °C for 60 min with cell monolayer on 24-well Millicell inserts (Millipore, Burlington, MA, USA) with and without the P-glycoprotein inhibitor Elacridar (2 µM, International Laboratory, San Francisco, CA, USA). The inhibition of P-glycoprotein was verified by amprenavir (Moravek Biochemicals Inc, Brea, CA, USA) and monolayer integrity using Lucifer yellow (Sigma, St. Louis, MO, USA). LC-MS/MS measured compound concentrations and Lucifer yellow was measured on an Infinite F500 (Tecan, Männedorf, CH, Switzerland) using excitation of 485 nm and emission of 530 nm.
All samples were quantified using tandem mass spectrometry coupled to liquid chromatography. Samples were analyzed on a Sciex API4000 Triple Quadrupole Mass Spectrometer (Sciex, Division of MDS Inc., Toronto, Canada) coupled to a Shimadzu Nexera X2 UHPLC frontend (Kyoto, Japan). Samples were injected onto a UHPLC column (HALO2 C18, 2.1 × 20 mm, 2 µm or Luna Omega 1.6 µm Polar C18 100A, 30 × 2.1 mm) and eluted with a gradient at 50 °C. The mobile phase was composed of acetonitrile/water mixture (9/1, with 0.1% formic acid) and 0.1% formic acid in deionized water. The flow rate was 0.7 mL/min under gradient conditions, leading to a total run time of 1.5–2 min. A positive ion mode with turbo spray, an ion source temperature of 550 °C, and a dwell time of 150 ms were utilized for mass spectrometric detection. Quantitation was performed using multiple reaction monitoring (MRM) at the specific transitions for each compound.

Row | Structure (SMILES) | IC50 [1] [µM] | IC50 [2] [µM] | IC50 [3] [µM] | IC50 [4] [µM] | Papp B→A at 60 min, 10 µM ([6]; 10 µM, 60 min, 37 °C) [×10⁻⁶ cm/s] | efflux ratio at 60 min, 10 µM ([6]; <2 no efflux, >2 active efflux) | Papp at 60 min, 10 µM ([6]; permeability class) [×10⁻⁶ cm/s] | SI (HT-29) [3] | SI (HepG2) [4] | IC50 [5] [µM] | SI (MCF-7) [1] | SI (CFPAC-1) [2]
1 | OCC(c1ccc(Br)cc1)n1cc(Cn2cnc3c(Cl)ncnc32)nn1 (centres unmarked) [Compound 39a, 6-Chloro-9-((1-(2-hydroxy-1-(4-bromophenyl)ethyl)-1H-1,2,3-triazol-4-yl)methyl)-9H-purine] | 14 ± 4.8 | 46 ± 3.8 | 31 ± 2.6 | 16 ± 5.6 | 58 | 68.1 | ≤ 2 | 0.5 | 0.9 | 14 ± 4.7 |  | 
2 | O[C@@H](Cn1cc(Cn2cnc3c(Cl)ncnc32)nn1)c1ccccc1 [Compound (R)-36b, (R)-6-Chloro-9-((1-(2-hydroxy-2-phenylethyl)-1H-1,2,3-triazol-4-yl)methyl)-9H-purine] | 61 ± 3.7 | 66 ± 3.2 | 86 ± 11.6 | 57 ± 9.7 |  |  |  | >1.2 | >1.8 | > 100 |  | 
3 | O[C@@H](Cn1cc(Cn2ccc3c(Cl)ncnc32)nn1)c1ccccc1 [Compound (R)-41b, (R)-4-Chloro-7-((1-(2-hydroxy-2-phenylethyl)-1H-1,2,3-triazol-4-yl)methyl)-7H-pyrrolo[2,3-d]pyrimidine] | 46 ± 2.7 | 58 ± 12.1 | 46 ± 2.3 | 52 ± 2.7 |  |  |  |  |  | 23 ± 5.8 | 0.5 | 0.4
4 | O[C@@H](Cn1cc(Cn2ccc3c(Cl)ncnc32)nn1)c1ccc(F)cc1 [Compound (R)-42b, (R)-4-Chloro-7-((1-(2-hydroxy-2-(4-fluorophenyl)ethyl)-1H-1,2,3-triazol-4-yl)methyl)-7H-pyrrolo[2,3-d]pyrimidine] | 60 ± 1.2 | 20 ± 0.9 | 27 ± 1.4 | 32 ± 6.04 |  |  |  |  |  | 24 ± 2.4 | 0.4 | 1.2
5 | O[C@@H](Cn1cc(Cn2ccc3c(Cl)ncnc32)nn1)c1ccc(Cl)cc1 [Compound (R)-43b, (R)-4-Chloro-7-((1-(2-hydroxy-2-(4-chlorophenyl)ethyl)-1H-1,2,3-triazol-4-yl)methyl)-7H-pyrrolo[2,3-d]pyrimidine] | 35 ± 1.9 | 32 ± 16.1 | 48 ± 4.8 | 26 ± 8.2 |  |  |  |  |  | 20 ± 6.5 | 0.6 | 0.6
6 | O[C@@H](Cn1cc(Cn2ccc3c(Cl)ncnc32)nn1)c1ccc(C(F)(F)F)cc1 [Compound (R)-45b, (R)-4-Chloro-7-((1-(2-hydroxy-2-(4-(trifluoromethyl)phenyl)ethyl)-1H-1,2,3-triazol-4-yl)methyl)-7H-pyrrolo[2,3-d]pyrimidin] | 43 ± 4.6 | 49 ± 8.7 | 45 ± 4 | 38 ± 7.6 |  |  |  |  |  | 21 ± 3.8 | 0.5 | 0.4
7 | O[C@H](Cn1cc(Cn2cnc3c(Cl)ncnc32)nn1)c1ccccc1 [Compound (S)-36b, (S)-6-Chloro-9-((1-(2-hydroxy-2-phenylethyl)-1H-1,2,3-triazol-4-yl)methyl)-9H-purine] | 33 ± 5.8 | 32 ± 5.3 | 48 ± 4.8 | 21 ± 0.8 |  |  |  | >2.1 | >4.8 | > 100 |  | 
8 | O[C@H](Cn1cc(Cn2ccc3c(Cl)ncnc32)nn1)c1ccccc1 [Compound (S)-41b, (S)-4-Chloro-7-((1-(2-hydroxy-2-phenylethyl)-1H-1,2,3-triazol-4-yl)methyl)-7H-pyrrolo[2,3-d]pyrimidine] | 45 ± 7.2 | 49 ± 18.5 | 41 ± 5.6 | 41 ± 12.4 |  |  |  |  |  | 58 ± 3.1 | 1.3 | 1.2
9 | O[C@H](Cn1cc(Cn2ccc3c(Cl)ncnc32)nn1)c1ccc(F)cc1 [Compound (S)-42b, (S)-4-Chloro-7-((1-(2-hydroxy-2-(4-fluorophenyl)ethyl)-1H-1,2,3-triazol-4-yl)methyl)-7H-pyrrolo[2,3-d]pyrimidine] | 41 | 13 ± 2.7 | 33 ± 0.2 | 49 ± 2 |  |  |  |  |  | 73 ± 2.4 | 1.8 | 5.6
10 | O[C@H](Cn1cc(Cn2ccc3c(Cl)ncnc32)nn1)c1ccc(C(F)(F)F)cc1 [Compound (S)-45b, (S)-4-Chloro-7-((1-(2-hydroxy-2-(4-(trifluoromethyl)phenyl)ethyl)-1H-1,2,3-triazol-4-yl)methyl)-7H-pyrrolo[2,3-d]pyrimidin] | 26 ± 8.5 | 43 ± 10.8 | 31 ± 2.2 | 23 ± 2.3 |  |  |  |  |  | 43 ± 3.9 | 1.7 | 1.0

Second part, led by results:

Row | IC50 [1] [µM] | IC50 [2] [µM] | IC50 [3] [µM] | IC50 [4] [µM] | Papp B→A at 60 min, 10 µM ([6]; 10 µM, 60 min, 37 °C) [×10⁻⁶ cm/s] | efflux ratio at 60 min, 10 µM ([6]; <2 no efflux, >2 active efflux) | Papp at 60 min, 10 µM ([6]; permeability class) [×10⁻⁶ cm/s] | Structure (SMILES) | SI (HT-29) [3] | SI (HepG2) [4] | IC50 [5] [µM] | SI (MCF-7) [1] | SI (CFPAC-1) [2]
11 | > 100 | > 100 | > 100 | 64 ± 3.1 |  |  |  | O[C@@H](Cn1cc(Cn2cnc3c(Cl)ncnc32)nn1)c1ccc(F)cc1 [Compound (R)-37b, (R)-6-Chloro-9-((1-(2-hydroxy-2-(4-fluorophenyl)ethyl)-1H-1,2,3-triazol-4-yl)methyl)-9H-purine] |  | 0.6 | 35 ± 5.5 |  | 
12 | 64 ± 4.8 | 60 ± 10.3 | 51 ± 17.8 | 39 ± 10.5 |  |  |  | O[C@@H](Cn1cc(Cn2cnc3c(Cl)ncnc32)nn1)c1ccc(Cl)cc1 [Compound (R)-38b] | 0.6 | 0.8 | 31 ± 13.4 |  | 
13 | 73 ± 2.9 | 65 ± 5.4 | 24 ± 2.9 | 45 ± 1.9 |  |  |  | O[C@H](Cn1cc(Cn2cnc3c(Cl)ncnc32)nn1)c1ccc(F)cc1 [Compound (S)-37b, (S)-6-Chloro-9-((1-(2-hydroxy-2-(4-fluorophenyl)ethyl)-1H-1,2,3-triazol-4-yl)methyl)-9H-purine] | 2.9 | 1.6 | 70 ± 19.5 |  | 
14 | 58 ± 1.9 | 51 ± 11.7 | 47 ± 16.8 | 28 ± 7.5 |  |  |  | O[C@H](Cn1cc(Cn2cnc3c(Cl)ncnc32)nn1)c1ccc(Cl)cc1 [Compound (S)-38b] | 1.7 | 2.9 | 81 ± 1.8 |  | 
15 | 33 ± 5.8 | 31 ± 5.3 | 33 ± 7.8 | 21 ± 0.8 |  |  |  | O[C@H](Cn1cc(Cn2ccc3c(Cl)ncnc32)nn1)c1ccc(Cl)cc1 [Compound (S)-43b, (S)-4-Chloro-7-((1-(2-hydroxy-2-(4-chlorophenyl)ethyl)-1H-1,2,3-triazol-4-yl)methyl)-7H-pyrrolo[2,3-d]pyrimidine] |  |  | 41 ± 1.1 | 1.2 | 1.3
